From US20180008587A1, “THIOHYDANTOIN ANDROGEN RECEPTOR ANTAGONISTS FOR THE TREATMENT OF CANCER” (Jaressen Pharmaceutica NV, priority 2016, published 2018) come the findings set out here.

Experiment [1] deals with androgen dependent signaling. The experiment is described as follows: Hershberger assay. Type of experiment: in vivo, rat. The conditions noted are these: castrated rats, mean ± SD (n=6). The procedure:
The effect of AR antagonists on androgen dependent signaling in vivo was assessed using the Hershberger assay. In this assay, peripubertal castrated male Sprague-Dawley rats were administered AR antagonists described herein in the presence of testosterone (0.4 mg/kg testosterone propionate) and the weights of androgen dependent organs measured. Dosing was continued for 10 days and measurements taken 24 h after the last dose. The extent of antagonism of AR and consequent inhibition of organ growth was evaluated by comparison to the castration control. Compounds of Formula (I) were dosed orally QD and an endpoint assessment made by change in weight of 5 androgen sensitive organs (ASO): Paired Cowper's Glands (CG), Seminal Vesicles with Fluids and Coagulating Glands (SVCG), Glans Penis (GP), Ventral Prostate (VP) and Levator Ani-Bulbocavernosus Complex (LABC)). According to assay guidelines, statistically significant suppression of ASO is required in 2 of 5 organs for a compound to be classified as an anti-androgen (analysis was performed by t-test/Mann-Whitney).
Compounds defined herein were administered at the indicated dose (mg/kg) and flutamide (FT), positive control, at 3 mg/kg. All compounds were co-administered with testosterone propionate (TP, 0.4 mg/kg) which was also administered alone, untreated control, (castrated only rats served as the control for complete androgen blockade). A statistically significant change in ASO achieved in at least 2 of 5 organs was indicative of an active compound.

The next experiment has as its target T1, F876L-VP16 (Homo sapiens, UniProt P10275, F877L).
T1 construct: VP16 (fusion partner); expressed in transfected cells; host or cells: HepG2
T1 sequence (P10275 1-920 F877L): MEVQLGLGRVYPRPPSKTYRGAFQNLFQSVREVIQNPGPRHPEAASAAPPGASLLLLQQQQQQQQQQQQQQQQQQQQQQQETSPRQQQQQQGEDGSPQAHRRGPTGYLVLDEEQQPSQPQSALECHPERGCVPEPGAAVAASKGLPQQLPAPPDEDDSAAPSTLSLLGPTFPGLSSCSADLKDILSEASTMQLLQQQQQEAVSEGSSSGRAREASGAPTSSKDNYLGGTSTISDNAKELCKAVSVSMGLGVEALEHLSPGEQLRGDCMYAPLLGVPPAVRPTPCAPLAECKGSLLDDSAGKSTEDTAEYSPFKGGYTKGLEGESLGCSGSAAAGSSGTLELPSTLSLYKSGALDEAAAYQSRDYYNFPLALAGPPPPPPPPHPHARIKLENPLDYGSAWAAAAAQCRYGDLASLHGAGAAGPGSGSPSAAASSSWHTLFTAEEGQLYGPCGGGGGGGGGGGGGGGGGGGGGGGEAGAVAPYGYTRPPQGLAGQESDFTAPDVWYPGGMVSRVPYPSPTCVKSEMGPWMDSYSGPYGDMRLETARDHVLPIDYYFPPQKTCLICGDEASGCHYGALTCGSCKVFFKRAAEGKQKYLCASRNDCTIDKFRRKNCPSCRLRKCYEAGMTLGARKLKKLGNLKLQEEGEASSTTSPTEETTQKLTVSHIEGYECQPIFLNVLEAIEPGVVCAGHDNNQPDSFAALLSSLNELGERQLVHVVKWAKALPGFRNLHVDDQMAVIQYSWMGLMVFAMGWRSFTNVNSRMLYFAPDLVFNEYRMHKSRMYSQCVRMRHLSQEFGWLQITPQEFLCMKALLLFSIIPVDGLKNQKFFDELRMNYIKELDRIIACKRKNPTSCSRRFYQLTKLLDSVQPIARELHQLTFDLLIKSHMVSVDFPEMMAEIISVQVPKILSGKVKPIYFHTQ
The experiment is described as follows: AR-VP16 DNA binding assay, HepG2. The note with it: HepG2, antagonist mode, 1 nM R1881, 48 hours. Type of experiment: cell-based. The procedure:
HepG2 cells were maintained in EMEM supplemented with 10% FBS. One day before transfection, the media was changed to EMEM with 10% CSS. […] Cells were then trypsinized, counted and resuspended at 500,000 cells/mL. For agonist mode, the compounds were serially diluted and 50 μL of the compound was added per well. 50 μL of the cells were added to each well and incubated for 48 hours. For antagonist mode, a final concentration of 90 pM (VP16 AR) or 1 nM (VP16 F876L) R1881 was added to the plate and incubated for 48 hours. The plates were then assayed using SteadyGlo and read on the Envision. Percent Stimulation and Inhibition were determined and analyzed using GraphPad Prism.

Setting [2] is: 30 mg/kg orally QD 10 days with testosterone propionate 0.4 mg/kg.
[3] abbreviates: 3 mg/kg orally QD 10 days with testosterone propionate 0.4 mg/kg.
The mark [4] stands for this setting: 10 mg/kg orally QD 10 days with testosterone propionate 0.4 mg/kg.

Consider `N#Cc1ncc(N2C(=O)C3(CCC3)N(c3ccc(OC4CCNCC4)cc3)C2=S)cc1C(F)(F)F` [Cpd 35, 5-[5-oxo-8-[4-(4-piperidyloxy)phenyl]-7-thioxo-6,8-diazaspiro[3.4]octan-6-yl]-3-(trifluoromethyl)pyridine-2-carbonitrile], for which, in experiment [1] (setting [2]), the “ASO Organ Growth (% of TP control) SVCG” value is on record as 28.1 ± 19.5 % of TP control and the “ASO Organ Growth (% of TP control) VP” value is on record as 25.7 ± 22.9 % of TP control. The IC50 (commonly the concentration needed to halve the response being measured) on F876L-VP16 was 2740 nM.
In turn, `N#Cc1ncc(N2C(=O)C3(CCC3)N(c3ccc(C(=O)NCCCO)c(F)c3)C2=S)cc1C(F)(F)F` [Cpd 40, 4-[6-[6-cyano-5-(trifluoromethyl)-3-pyridyl]-5-oxo-7-thioxo-6,8-diazaspiro[3.4]octan-8-yl]-2-fluoro-N-(3-hydroxypropyl)benzamide] registered an IC50 on F876L-VP16 of 994 nM.
As for `CN1CCC(Oc2ccc(N3C(=S)N(c4cnc(C#N)c(C(F)(F)F)c4)C(=O)C34CCC4)cc2)CC1` [Cpd 85, 5-[8-[4-[(1-methyl-4-piperidyl)oxy]phenyl]-5-oxo-7-thioxo-6,8-diazaspiro[3.4]octan-6-yl]-3-(trifluoromethyl)pyridine-2-carbonitrile], the “ASO Organ Growth (% of TP control) SVCG” value in experiment [1] (setting [3]) is 67.3 ± 20.2 % of TP control; in experiment [1] (setting [4]), 31.6 ± 37.7 % of TP control; in experiment [1] (setting [2]) it was 8.5 ± 14.7 % of TP control. Also, the “ASO Organ Growth (% of TP control) VP” value in experiment [1] (setting [3]) is given as 72.3 ± 18.5 % of TP control; in experiment [1] (setting [4]), 37.4 ± 25.6 % of TP control; in experiment [1] (setting [2]) it was 13.2 ± 19.2 % of TP control.
